# Patent US20200375929A1, “METHODS AND COMPOSITIONS FOR THE TREATMENT OF DISEASES ASSOCIATED WITH CANCER, INFLAMMATION, OR IMMUNE RESPONSE” (Washington University, priority 2017, published 2020)
# “Also recorded” adds a separate entry of the source.
# Tests used:
# HBL1 cells line (ABC) = assay: DLBCL cell viability, resazurin assay, ABC subtype; assay type: cell-based; settings: HBL1, 4 days, refreshed daily; DI 125-250 μM
# NFkB pathway = assay: Canonical NFkB signaling in LPS-stimulated BMDMs (p65 translocation, IKK, IkBa); assay type: cell-based, mouse
# Experimental: (§1) BMDM were prepared from 6- to 12-week-old mice as described 1 and cultured in RMPI-1640 medium supplemented with 10% fetal bovine serum (FBS), 2 mM L-glutamine, and 100 U/mL penicillin-streptomycin and mouse recombinant M-CSF ([…], Peprotech). For experiments, cells were seeded at concentration 10^6 cells/mL in tissue culture plates of various formats. The cells were treated with DI (250 μM (unless stated otherwise), cat #592498, Sigma), DMF (50 μM (unless stated otherwise), cat #242926, Sigma), 3-(ethoxycarbonyl)but-3-enoic acid (3MI, 5 μM, Aris Pharmaceuticals Inc.), 4-ethoxy-2-methylene-4-oxobutanoic acid (MI, Aris Pharmaceuticals Inc.) for 12 h and activated with lipopolysaccharide (LPS; 100 ng/mL; E. coli 0111:B4, Sigma) for 1 h or as indicated. In some experiments cells were stimulated with combination of LPS (20 ng/mL) and IFN-γ (50 ng/mL; Peprotech). In some experiments cells were treated with α-tocopherol (AT, 10 μM; Sigma), MitoTEMPO (MT, 500 μM; Sigma), N-acetylcysteine (NAC, 1 mM, Sigma), ethylester of GSH (EtGSH; 1 mM, Santa Cruz) or buthionene sulfoximine (BSO, 500 μM, Sigma) alone or in combination with DI for 12 h. […]
# (§2) Cells were lysed in RIPA Lysis Buffer System (Santa Cruz) and heat-denatured at 95° C. for 5 min in reducing sample buffer (BioRad). […] Non-specific binding was blocked with 5% skim milk (or 5% BSA when phospho-proteins were analyzed), and membranes were probed with primary antibodies specific to Nrf2 (#12721), HO-1 (#70081), IκBζ (mouse specific, #93726), IκBζ(#9244), ATF3 (#D2Y5W), IRAK1 (#4504; sensitivity of IRAK1 detection diminishes upon IRAK1 K63 ubiquitination), phospho-IKK (Ser176/180, #2697), p62/SQSTM1 (#5114), phospho-eIF2α (Ser51, #9721), eIF2α (#5324) from Cell Signaling; GAPDH (sc-25778), IκBα (sc-1643), ATF3 (sc-188), SDHA (sc-166909) from Santa Cruz; NQO1 (ab28947) from Abeam, followed by incubation with anti-rabbit-HRP (1:10,000; sc-2030) or anti-mouse-HRP (1:10,000; sc-2031) from Santa Cruz and Clarity western ECL substrate (Bio-Rad). […]
# eIF2α = eIF2α phosphorylation in BMDMs (western blot); assay type: cell-based, mouse; settings: DI
# Experimental: BMDM were prepared from 6- to 12-week-old mice as described 1 and cultured in RMPI-1640 medium supplemented with 10% fetal bovine serum (FBS), 2 mM L-glutamine, and 100 U/mL penicillin-streptomycin and mouse recombinant M-CSF ([…], Peprotech). For experiments, cells were seeded at concentration 10^6 cells/mL in tissue culture plates of various formats. […]
# as §2
# [1] = tested on: IκBζ target genes (Defb4, S100a7a, Lcn2, S100a9); assay: IκBζ target gene expression in IL-17A-stimulated human keratinocytes (qPCR); assay type: cell-based; settings: DI 12 h
# Experimental: RNA from cultured cells was isolated using a Total RNA I kit (OMEGA). RNA from mouse ear skin was extracted using RNAeasy mini kit (Qiagen) after tissue disruption with sterile zirconium beads on a MagNA Lyser (Roche). Isolated RNA was reverse transcribed using AffinityScript Multi-Temp reverse transcriptase (Agilent Technologies) according to the manufacturer's protocol. Reactions were performed in 96-well plates using a SYBR Green PCR Master mix (Thermo Fisher Scientific) using a LightCycler® 96 or LightCycler® 480 (Roche Diagnostics). All assays were performed at least in duplicates, and reaction mixtures in 20 μL volumes (96-plate) or 10 μL volumes (384-plate) were processed under the following cycling conditions: initial 10 min denaturation at 95° C., followed by 40 cycles at 95° C. for 10 s, 60° C. for 1 min. Threshold cycle (CT) values for each sample were determined by automated threshold analysis. Expression levels of all mRNAs were normalized to reference gene Actb in BMDMs or to Rpl19 in mouse keratinocytes and tissue samples; to ACTB in human blood monocytes or RPLP0 in human keratinocytes. The relative increase in the expression level of a gene was normalized to the level of expression in unstimulated control cells in each experiment. IκBζ-dependent genes selected for analysis in macrophages were previously published. […]
# ATF3 = ATF3 protein expression (western blot); assay type: cell-based, mouse; settings: BMDMs, DI, also on Nrf2−/− background
# Experimental: as §1, §2
compound,measurement,setting,value
"C=C(CC(=O)OC)C(=O)OC [DI, dimethyl itaconate]","growth / toxicity, ABC DLBCL",HBL1 cells line (ABC),selective toxicity towards ABC
same,p65 nuclear translocation upon LPS,"NFkB pathway; BMDMs, DI 250 μM 12 h, LPS",does not inhibit nuclear translocation of p65; also recorded: nor did it prevent LPS-mediated p65 nuclear translocation
same,IκBα degradation in response to LPS,"NFkB pathway; BMDMs, DI, LPS",did not inhibit IκBα degradation
same,canonical NFkB response,"NFkB pathway; DI at concentrations effective to inhibit IL6, p65 translocation, IKK activation, IkBa degradation",not affected
same,eIF2α phosphorylation in Atf3−/− macrophages,eIF2α; Atf3−/− macrophages,failed to increase eIF2α phosphorylation
same,eIF2α phosphorylation,eIF2α; WT macrophages,marked increase
same,expression of IL-17A signature / IκBζ target genes,[1],also inhibited; also recorded: downregulated
same,ATF3 protein,ATF3,upregulated
